Source: US11413283B2, “Topical formulations for delivery of hedgehog inhibitor compounds and use thereof” (PellePharm, Inc., priority 2015, dated 2022)
Where two headings read alike, the source gives them in different places. Each block holds one molecule with its values, some of them ahead of it.

Experiments:
[1] = tested on: Hedgehog (Hh) signaling pathway; conditions: Kim and Beachy, Cancer Cell, 17, 388-399, 2010; read-out: IC50 value for itraconazole (half maximal inhibitory concentration); cited from earlier work
[2] = Saturated solubility of itraconazole in solvents and solvent systems; format: physicochemical
[3] = tested on: cellular hedgehog pathway; conditions: Tremblay et al., J. Med. Chem. 2009; read-out: half maximal effective concentration for inhibition of cellular hedgehog pathway; cited from earlier work
[4] = Toxicokinetics of patidegib and metabolite IPI-230 in plasma after twice daily dermal application for 13 weeks; format: in vivo, Gottingen Minipig; conditions: for Cmax / AUC(0-t) / Tmax: Gottingen, minipig, plasma, topical or ocular; for Cmax / AUC(0-t): Gottingen Minipig plasma; for AUC(0-t): read-out: Mean Patidegib AUC0-24; for Tmax: dermal, minipig plasma, read-out: Individual Tmax
Protocol: A study was conducted to evaluate the toxicokinetics of patidegib when administered twice daily via dermal application for 13 weeks. As described in Example 11, the formulation identified herein as SS14 was prepared, with patidegib concentrations of 2% and 4%. The formulations, along with a placebo, were applied topically to Gottingen Minipigs® twice daily, and blood samples were collected on study days 1, 14 and 90 for analysis of patidegib and its metabolite, IPI-230.
A study was conducted to determine the toxicokinetics of patidegib and its metabolite, IPI-230, when patidegib was administered twice daily (approximately 8 hours apart) to Gottingen Minipigs® via dermal application for 13 weeks.
The formulation identified herein as SS14 was prepared, with 2% patidegib and with 4% patidegib. A placebo formulation was also prepared that was identical in all respects to SS14 except for the absence of the patidegib. The formulation was applied topically to the animals at patidegib dose levels of 0 mg/kg/day (untreated), 0 mg/kg/day (placebo), 40 mg/kg/day, and 80 mg/kg/day to Groups 1, 2, 3, and 4, respectively. Groups 1 and 3 consisted of four animals/sex/group and Groups 2 and 4 consisted of six animals/sex/group. Doses were administered twice daily (approximately 8 hours apart). Blood samples were collected from all animals, survival permitting, on Days 1, 14 (Group 4 only), and 90 predose and at approximately 2, 4, 6, 8 (just prior to the second daily dose), 10, 12, 14, 16, and 24 hours following the first daily dose. Plasma samples were assayed for patidegib and IPI-230. Only the 2-hour samples from the untreated and placebo groups were analyzed.
Noncompartmental analysis was applied to the individual plasma patidegib and IPI-230 concentration data for males and females. The following parameters were estimated: Cmax—Maximum observed concentration; Tmax—Time of maximum observed concentration; AUCTlast—Area under the concentration-time curve from hour 0 to the last measurable concentration, estimated by the linear trapezoidal rule; AUC0-24—Area under the concentration-time curve from hour 0 to hour 24, estimated by the linear trapezoidal rule; DN AUC0-24—Dose normalized AUC0-24, calculated as AUC0-24/dose level; DN Cmax—Dose normalized Cmax, calculated as Cmax/dose level.

[5] = minimum of 24 hours stirring at 25° C.
[6] = both sexes, 40 mg/kg/day, Day 90, Group 3, 40 mg/kg/day dermal twice daily, sexes combined MF
[7] = both sexes, 80 mg/kg/day, Day 1, Group 4, 80 mg/kg/day dermal twice daily, sexes combined MF
[8] = both sexes, 80 mg/kg/day, Day 14, Group 4, 80 mg/kg/day dermal twice daily, sexes combined MF
[9] = both sexes, 80 mg/kg/day, Day 90, Group 4, 80 mg/kg/day dermal twice daily, sexes combined MF
[10] = female, 40 mg/kg/day, Day 1, Group 3, 40 mg/kg/day dermal twice daily, sex F
[11] = female, 40 mg/kg/day, Day 90, Group 3, 40 mg/kg/day dermal twice daily, sex F
[12] = female, 80 mg/kg/day, Day 1, Group 4, 80 mg/kg/day dermal twice daily, sex F
[13] = female, 80 mg/kg/day, Day 14, Group 4, 80 mg/kg/day dermal twice daily, sex F
[14] = female, 80 mg/kg/day, Day 90, Group 4, 80 mg/kg/day dermal twice daily, sex F
[15] = male, 40 mg/kg/day, Day 90, Group 3, 40 mg/kg/day dermal twice daily, sex M
[16] = male, 80 mg/kg/day, Day 1, Group 4, 80 mg/kg/day dermal twice daily, sex M
[17] = male, 80 mg/kg/day, Day 14, Group 4, 80 mg/kg/day dermal twice daily, sex M
[18] = male, 80 mg/kg/day, Day 90, Group 4, 80 mg/kg/day dermal twice daily, sex M

solubility of itraconazole in water [2]: highly insoluble
saturated solubility of itraconazole in N-methyl pyrrolidone [2, 5]: 7.65 % w/w
solubility of itraconazole in benzyl alcohol [2, 5]: 14.97 % w/w
solubility of itraconazole in castor oil [2, 5]: 0.01-0.05 % w/w
solubility of itraconazole in diisopropyl adipate [2, 5]: 0.01-0.05 % w/w
solubility of itraconazole in dimethicone 350 CST [2, 5]: 0.01-0.05 % w/w
solubility of itraconazole in dimethyl isosorbide [2, 5]: 2.32 % w/w
solubility of itraconazole in ethanol [2, 5]: 0.01-0.05 % w/w
solubility of itraconazole in phenoxyethanol [2, 5]: 7.87 % w/w
solubility of itraconazole in the remaining solvents investigated (not shown) [2, 5]: 0.01-0.20 % w/w
Structure (SMILES): CCC(C)n1ncn(-c2ccc(N3CCN(c4ccc(OCC5COC(Cn6cncn6)(c6ccc(Cl)cc6Cl)O5)cc4)CC3)cc2)c1=O [itraconazole, (2R,4S)-rel-1-(butan-2-yl)-4-{4-[4-(4-(4-{[(2R,4S)-2-(2,4-dichlorophenyl)-2-(1H-1,2,4-triazol-1-ylmethyl)-1,3-dioxolan-4-yl]methoxy}phenyl)piperazin-1-yl]phenyl}-4,5-dihydro-1H-1,2,4-triazol-5-one]
IC50 [1]: 800 nM

Structure (SMILES): CC1=C2C[C@H]3[C@@H](CC[C@@H]4C[C@H](NS(C)(=O)=O)CC[C@@]43C)[C@@H]2CC[C@@]2(C1)O[C@@H]1C[C@H](C)CN[C@H]1[C@H]2C [patidegib]
EC50 [3]: 7 nM
dose proportionality of increases in mean Cmax and AUC0-24 ([4]; 40 to 80 mg/kg/day, Day 90): generally greater than dose proportional
Cmax [4, 6]: 21.9 ng/mL
AUC(0-t) [4, 6]: 329 ng·h/mL
Cmax [4, 7]: 3.93 ng/mL
AUC(0-t) [4, 7]: 37.1 ng·h/mL
Cmax [4, 8]: 249 ng/mL
AUC(0-t) [4, 8]: 4110 ng·h/mL
Cmax [4, 9]: 75.8 ng/mL
AUC(0-t) [4, 9]: 1240 ng·h/mL
Tmax ([4]; both sexes, post the first or second dose on Day 1): 2 to 8 h
Tmax ([4]; both sexes, post the first or second dose on Days 14 and 90): 2 to 6 h
Cmax [4, 10]: 4.65 ng/mL
AUC(0-t) [4, 10]: 56.7 ng·h/mL
Cmax [4, 11]: 35 ng/mL
AUC(0-t) [4, 11]: 526 ng·h/mL
Cmax [4, 12]: 4.03 ng/mL
AUC(0-t) [4, 12]: 36.3 ng·h/mL
Cmax [4, 13]: 410 ng/mL
AUC(0-t) [4, 13]: 6820 ng·h/mL
Cmax [4, 14]: 141 ng/mL
AUC(0-t) [4, 14]: 2310 ng·h/mL
Cmax [4, 15]: 8.68 ng/mL
AUC(0-t) [4, 15]: 132 ng·h/mL
Cmax [4, 16]: 3.84 ng/mL
AUC(0-t) [4, 16]: 37.7 ng·h/mL
Cmax [4, 17]: 88.7 ng/mL
AUC(0-t) [4, 17]: 1390 ng·h/mL
Cmax [4, 18]: 21.4 ng/mL
AUC(0-t) [4, 18]: 352 ng·h/mL
